Test results from PubChem BioAssay (NCI).
“And” between values parts separate entries of the source, which are not always exact repeats. Identical values can stand only once.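 All cell lines were grown in 96-well plates and treated with compound for 48 hours. Abbreviation: GI50, concentration required for 50% inhibition of growth. Definition used: TGI = concentration required for complete inhibition of growth.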

How the values were obtained:
Assay in all cases: DTP human tumour cell line panel, 48 h
[1] = system: OVCAR-5 ovarian
[2] = system: TK-10 renal
[3] = system: HT29 colon
[4] = system: NCI/ADR-RES ovarian
[5] = system: RXF 393 renal
[6] = system: SN12C renal
[7] = system: PC-3 prostate
[8] = system: HCT-116 colon
[9] = system: SK-OV-3 ovarian
[10] = system: MOLT-4 leukemia

Row | SMILES | GI50 [1] | TGI [1] | GI50 [2] | TGI [2] | GI50 [3] [µM] | TGI [3] | GI50 [4] [µM] | TGI [4] [µM] | GI50 [5] [µM] | TGI [5] | GI50 [6] | TGI [6] | GI50 [7] [µM] | TGI [7] | GI50 [8] | TGI [8] | GI50 [9] | TGI [9] | GI50 [10] [µM] | TGI [10]
1 | FC(F)(F)c1cccc(CNC2CCN(CCc3ccccc3)CC2)c1 | 27.2 µM | > 100 µM | 30.7 µM | > 100 µM | 13.5 | 46.1 µM | 41.9 | > 100 | 12.9 | 39.5 µM | 55.6 µM | > 100 µM | 32 | > 100 µM | 22.1 µM | 76.7 µM | 38.9 µM | > 100 µM | 20.5 | 70.4 µM
2 | O=C(CCN1CCOCC1)Nc1ccc(Cn2nnc3c2C(=O)c2nnn(Cc4ccc(NC(=O)CCN5CCOCC5)cc4)c2C3=O)cc1 | > 100 µM | > 100 µM | > 100 µM | > 100 µM | 1.24 | > 100 µM | > 100 | > 100 | > 100 | > 100 µM | 0.52 µM | 2 µM | – | > 100 µM | 0.384 µM | > 100 µM | > 84 µM | > 100 µM | 0.763 | 3.48 µM
3 | COc1cc2c3c(n(CCCN)c(=O)c2cc1OC)-c1ccc(N)cc1C3=O | 7.87 µM | > 47.9 µM | 17.9 µM | 80.6 µM | 2.41 | 18.2 µM | > 100 | > 100 | 1.07 | 7.22 µM | 2.98 µM | 27.3 µM | 1.19 | 22.1 µM | 0.339 µM | 1.35 µM | 2.52 µM | 17.9 µM | 0.527 | 4.7 µM
4 | O=C1[C@H](Cc2ccc(O)cc2)N2C(=O)CCN(C(=O)NCc3ccccc3)[C@H]2CN1Cc1cccc2ccccc12 | 1.72 µM | 29.1 µM | 3.88 µM | 30.7 µM | 2.85 | 19.3 µM | 43.5 | > 100 | 3.8 | 14.5 µM | 4.18 µM | > 100 µM | 2.54 | 18.8 µM | 0.916 µM | 12.7 µM | 2.74 µM | 8.14 µM | 1.67 | 54.1 µM
5 | CN(C)c1ccc(/C=N/N=C(\C#N)[S][Sn]([Cl])([c]2ccccc2)[c]2ccccc2)cc1 | 1.59 µM | 3.24 µM | 1.46 µM | 2.8 µM | 2.08 | 4.18 µM | 2.01 | 4.76 | 1.38 | 2.72 µM | 1.59 µM | 3.12 µM | 2.94 | 8.38 µM | 1.32 µM | 2.63 µM | 2.78 µM | – | 0.876 | 5.32 µM
6 | O=c1c(Oc2ccc(F)cc2F)cc2cnc(NC3CCOCC3)nc2n1C1CC1 | > 25 µM | > 25 µM | 19.8 µM | > 25 µM | > 25 | > 25 µM | > 25 | > 25 | > 17.1 | > 25 µM | > 25 µM | > 25 µM | > 25 | > 25 µM | > 25 µM | > 25 µM | > 25 µM | > 25 µM | > 25 | > 25 µM
7 | CCCCCCCCCCCCOC1C(C(COC2OC(C(O)CO)C3OC(C)(C)OC23)OC(=O)Nc2ccccc2)OC2OC(C)(C)OC21 (stereo not given) | 4.84 µM | 16.3 µM | 4.72 µM | 9.91 µM | 2.11 | 4.68 µM | 6.04 | 18.4 | 4.33 | 12.6 µM | 4.89 µM | 16.6 µM | 3.57 | 13.1 µM | 2.14 µM | 5.79 µM | 15.6 µM | 30 µM | 0.127 | 5.14 µM
8 | COc1nc(N)nc2nc[nH]c12 | 401 µM and > 728 µM | 491 µM and 800 µM and > 1000 µM | 431 µM and 442 µM | 500 µM and 800 µM and > 1000 µM | > 800 | 500 µM and > 800 µM and > 1000 µM | 580 | > 739 | – | 489 µM and 800 µM and 914 µM | 536 µM and 552 µM | 500 µM and 800 µM and > 1000 µM | – | 500 µM and > 1000 µM | 747 µM and 670 µM | 500 µM and 800 µM and > 1000 µM | 776 µM and 508 µM | 212 µM and 800 µM and > 1000 µM | > 800 | 500 µM and > 800 µM and > 1000 µM
9 | O=C1NC(c2ccccc2Cl)Nc2ccccc21 (stereo not given) | – | > 100 µM | – | > 100 µM | – | > 100 µM | – | 27.5 | – | 63.1 µM | – | > 100 µM | – | > 72.6 µM | – | > 100 µM | – | > 100 µM | – | > 94.4 µM
10 | O=C1NC(=NCc2cccs2)O/C1=C\c1ccc2ncccc2c1 | 6.58 µM | 23.9 µM | 2.89 µM | 9.61 µM | 6.12 | 21.2 µM | 7.8 | > 25 | 4.63 | 13.9 µM | 5.86 µM | > 25 µM | 6.33 | > 25 µM | 4.92 µM | > 25 µM | 4.1 µM | 12.2 µM | 4.88 | 12.4 µM
11 | C#CCCCCCC(=O)N[C@H]1C=C[C@@H]2/C=C(C)/C=C/[C@@H](C)[C@H]([C@H](C)[C@H](O)[C@@H](C)NC(C)=O)OC(=O)/C=C/C=C(C)\C=C\[C@]2(C)C1 | 6.53 µM | > 40 µM | 0.0158 µM | > 40 µM | < 0.004 | 25.1 µM | 0.0258 | > 40 | < 0.004 | 2.48 µM | < 0.004 µM | > 40 µM | < 0.004 | > 40 µM | < 0.004 µM | > 40 µM | < 0.004 µM | > 40 µM | 6.79 | > 40 µM
12 | OCc1ccc(N2CCc3ccc(F)cc3C2)cc1Cl | 0.0301 µM | 0.183 µM | 0.0178 µM | 0.0693 µM | 0.229 | 6.61 µM | 5.22 | 25.6 | 0.373 | 12.1 µM | 8.22 µM | 22.9 µM | 12.7 | 27.4 µM | 0.0267 µM | 11.1 µM | 2.71 µM | 13.6 µM | 4.48 | 30.5 µM
13 | O=S(=O)(Nc1ccccc1)c1ccc(C2CC3(Cl)C(Cl)=C(Cl)C2(Cl)C3(Cl)Cl)cc1 (stereo not given) | 2.36 µM | 5.46 µM | 4.4 µM | 14.6 µM | 2.37 | 5.41 µM | 2.95 | 7.98 | 1.79 | 3.38 µM | 1.71 µM | 3.3 µM | 2.74 | 10.2 µM | 1.81 µM | 3.44 µM | 3.45 µM | 10.1 µM | 2.5 | 6.84 µM
14 | N#C[Se]CCN1C(=O)c2ccccc2C1=O | 2.24 µM | 9.38 µM | 2.13 µM | 6.3 µM | 2.84 | 8.29 µM | 1.87 | 7.42 | 1.37 | 2.86 µM | 2.69 µM | 10.9 µM | 1.74 | 8.27 µM | 1.06 µM | 3.23 µM | 3.46 µM | 8.72 µM | 2.01 | 23.9 µM
15 | Cc1ccc(-c2nc([P+](c3ccccc3)(c3ccccc3)c3ccccc3)c(N3CCOCC3)o2)cc1 | 0.846 µM | 11.9 µM | 1.44 µM | 9.15 µM | 0.357 | 11 µM | 21.9 | > 100 | 0.706 | 4.25 µM | 0.335 µM | 4.16 µM | 0.315 | 3.72 µM | 0.356 µM | 10.8 µM | 0.381 µM | 4.32 µM | 0.499 | 3.27 µM
16 | O=C1NC(=O)C2C3C=CC(C12)C1C2C(=O)NC(=O)C2C31 (stereo not given) | > 1000 µM | > 1000 µM | 695 µM | > 1000 µM | 657 | 194 µM and > 1000 µM | > 1000 | > 1000 | > 1000 | 250 µM and > 1000 µM | 419 µM | 250 µM and > 1000 µM | 525 | 250 µM and > 1000 µM | > 39.9 µM and 308 µM | > 55.9 µM and 250 µM and > 1000 µM | > 767 µM | 108 µM and > 1000 µM | 160 | 201 µM and 850 µM
17 | N#CC1=C(N)Oc2c(ccc3ccccc23)C1c1cc2ccccc2n2nnnc12 (stereo not given) | 2.76 µM | > 100 µM | 4.8 µM | > 100 µM | 3 | > 100 µM | 0.534 | 46.6 | 1.4 | 6.59 µM | 0.99 µM | > 100 µM | 0.546 | > 100 µM | 0.685 µM | > 100 µM | 2.05 µM | > 100 µM | 0.557 | > 100 µM
18 | O=C1c2ccccc2-c2c1c1c(O)cccc1n2Cc1ccccc1 | 16.4 µM | 51.2 µM | 8.74 µM | 22.5 µM | 38.2 | > 100 µM | 6.5 | 33.6 | 11.5 | 44.8 µM | 14.1 µM | > 100 µM | 12.3 | 32.6 µM | 11.8 µM | > 100 µM | 14.5 µM | 41.7 µM | > 100 | > 100 µM
19 | Cn1cc(-c2ccc3c(c2)ncn3-c2cc(NS(=O)(=O)C3CC3)cc(-c3ccc(F)cc3F)c2)cn1 | 14 µM | > 100 µM | 2.73 µM | 72.7 µM | 10.3 | 38.3 µM | 13.6 | > 100 | 1.53 | 8.17 µM | 2.99 µM | > 100 µM | 5.97 | > 100 µM | 5.39 µM | 55.8 µM | 10.2 µM | > 100 µM | 2.8 | > 100 µM
20 | Nc1cc(C(F)(F)F)c(-c2nc(N3CCOCC3)nc(N3CCOCC3)n2)cn1 | 0.192 µM | > 100 µM | 0.11 µM | 1.17 µM | 0.214 | 36 µM | – | > 23.2 | 0.241 | 1.07 µM | 0.416 µM | > 48.1 µM | 0.258 | > 100 µM | 0.605 µM | > 100 µM | 0.131 µM | 0.598 µM | 0.426 | 39.8 µM
21 | Cc1cccc(Oc2ccc(Nc3ncnc4ccc(NC(=O)CN(C)C)cc34)cc2Cl)c1 | 2.98 µM | 12.9 µM | 1.1 µM | 3.57 µM | 1.76 | 3.77 µM | 2.83 | 14.2 | 1.61 | 3.19 µM | 1.34 µM | 3.13 µM | 2.02 | 6.32 µM | 1.61 µM | 3.09 µM | 0.828 µM | 7.24 µM | 2.37 | 6.82 µM
22 | CCOC(=O)C#Cc1c(C(=O)OCC)nnn1[C@@H]1O[C@H](COC)[C@@H](OC)[C@H]1OC | 16.2 µM | 32.7 µM | 1.86 µM | 3.45 µM | 2.86 | 6.49 µM | 15.9 | 37.3 | 1.97 | 4.14 µM | 3.81 µM | 14.6 µM | 16.7 | 31.7 µM | 3.33 µM | 10.7 µM | 67.5 µM | > 100 µM | 1.92 | 4.39 µM
23 | COc1cc(/C=C/c2cc(/C=C/c3ccc(O)c(OC)c3)n(C(=O)Nc3ccc(C)cc3)n2)ccc1O | 1.89 µM | 5.89 µM | 0.874 µM | 5.81 µM | 1.93 | 5.19 µM | 0.429 | > 100 | 0.381 | 1.41 µM | 0.408 µM | > 29.9 µM | 0.404 | 2.53 µM | 0.296 µM | 1.53 µM | 0.451 µM | 1.79 µM | 0.291 | 1.06 µM
24 | OC[C@H]1C[C@](O)(c2ccc(F)cc2)[C@@H](c2ccc(F)cc2)O1 | > 100 µM | > 100 µM | > 100 µM | > 100 µM | > 100 | > 100 µM | > 100 | > 100 | 52.7 | > 100 µM | > 100 µM | > 100 µM | > 100 | > 100 µM | 90.5 µM | > 100 µM | > 100 µM | > 100 µM | > 100 | > 100 µM
